Reference: paper PMC9127186, “Molecular Basis Underlying Hepatobiliary and Renal Excretion of Phenolic Acids of Salvia miltiorrhiza Roots (Danshen)” (Frontiers in Pharmacology, 2022)

target: T1, human PEPT1 (Homo sapiens, UniProt P46059); assay: Cellular transport assay, HEK-293 cells expressing human PEPT1; conditions: Danshen phenolic acid at 100 μM final concentration, 10 min, incubation pH 6.0; human transporter PEPE1 [sic], transfected vs mock cells
T1 sequence (P46059 1-708): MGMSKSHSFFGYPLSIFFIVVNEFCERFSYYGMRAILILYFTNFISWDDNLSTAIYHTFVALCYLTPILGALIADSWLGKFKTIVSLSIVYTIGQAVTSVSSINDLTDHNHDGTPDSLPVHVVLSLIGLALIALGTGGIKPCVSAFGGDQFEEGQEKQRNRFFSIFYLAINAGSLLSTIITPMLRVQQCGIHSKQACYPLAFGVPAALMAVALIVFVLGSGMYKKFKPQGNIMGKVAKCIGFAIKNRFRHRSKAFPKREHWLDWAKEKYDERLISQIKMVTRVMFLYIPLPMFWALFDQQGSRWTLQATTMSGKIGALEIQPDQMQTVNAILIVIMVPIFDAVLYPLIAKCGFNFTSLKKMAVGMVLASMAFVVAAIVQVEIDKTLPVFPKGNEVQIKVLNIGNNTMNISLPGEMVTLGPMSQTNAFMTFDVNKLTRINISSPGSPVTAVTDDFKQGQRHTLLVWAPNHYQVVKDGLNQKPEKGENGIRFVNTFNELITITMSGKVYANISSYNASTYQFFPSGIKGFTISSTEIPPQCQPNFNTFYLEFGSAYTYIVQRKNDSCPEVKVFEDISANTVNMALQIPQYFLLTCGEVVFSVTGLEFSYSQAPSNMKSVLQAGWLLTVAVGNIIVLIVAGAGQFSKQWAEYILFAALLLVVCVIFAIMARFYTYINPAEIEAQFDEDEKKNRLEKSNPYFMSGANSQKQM

Row | Molecule | TransportTC/TransportMC ratio (net transport ratio)
1 | salvianolic acid B | 2.05 ± 0.22
2 | O=C(O)Cc1c(/C=C/C(=O)O[C@H](Cc2ccc(O)c(O)c2)C(=O)O)ccc(O)c1O [Salvianolic acid D, salvianolic acid D] | 1.06 ± 0.20
3 | O=C(/C=C/c1ccc(O)c2c1[C@H](C(=O)O)[C@@H](c1ccc(O)c(O)c1)O2)O[C@H](Cc1ccc(O)c(O)c1)C(=O)O [Lithospermic acid, lithospermic acid] | 1.86 ± 0.36
4 | O=C(O)c1ccc(O)c(O)c1 [Protocatechuic acid, protocatechuic acid] | 0.93 ± 0.34

target: T2, human OCT1 (Homo sapiens, UniProt O15245); assay: Cellular transport assay, HEK-293 cells expressing human OCT1; conditions: Danshen phenolic acid at 100 μM final concentration, 10 min; human OCT1-transfected vs mock cells
T2 sequence (O15245 1-554): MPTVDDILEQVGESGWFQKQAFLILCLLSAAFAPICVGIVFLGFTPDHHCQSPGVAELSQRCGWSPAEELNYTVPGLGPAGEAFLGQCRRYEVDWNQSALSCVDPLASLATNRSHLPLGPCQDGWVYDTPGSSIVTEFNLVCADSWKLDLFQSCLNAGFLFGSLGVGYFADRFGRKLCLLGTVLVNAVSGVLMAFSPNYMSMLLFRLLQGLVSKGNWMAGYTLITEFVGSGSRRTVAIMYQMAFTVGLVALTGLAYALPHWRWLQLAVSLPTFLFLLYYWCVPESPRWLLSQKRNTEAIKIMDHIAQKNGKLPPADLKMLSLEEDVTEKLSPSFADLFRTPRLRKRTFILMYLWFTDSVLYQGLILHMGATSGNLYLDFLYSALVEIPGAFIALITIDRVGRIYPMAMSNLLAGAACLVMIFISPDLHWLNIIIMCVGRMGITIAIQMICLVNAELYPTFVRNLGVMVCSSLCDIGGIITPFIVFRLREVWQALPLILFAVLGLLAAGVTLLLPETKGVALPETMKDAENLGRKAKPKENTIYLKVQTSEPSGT

Row | Molecule | TransportTC/TransportMC ratio (net transport ratio)
5 | salvianolic acid B | 1.03 ± 0.07
6 | O=C(O)Cc1c(/C=C/C(=O)O[C@H](Cc2ccc(O)c(O)c2)C(=O)O)ccc(O)c1O [Salvianolic acid D, salvianolic acid D] | 1.04 ± 0.24
7 | O=C(/C=C/c1ccc(O)c2c1[C@H](C(=O)O)[C@@H](c1ccc(O)c(O)c1)O2)O[C@H](Cc1ccc(O)c(O)c1)C(=O)O [Lithospermic acid, lithospermic acid] | 1.56 ± 0.26
8 | O=C(O)c1ccc(O)c(O)c1 [Protocatechuic acid, protocatechuic acid] | 1.09 ± 0.33

tested on: not given; assay: not given; design: method as in Lu et al., 2008; conditions: ref Lu et al., 2008; cited from earlier work

Row | Molecule | membrane permeability
9 | O=C(O)Cc1c(/C=C/C(=O)O[C@H](Cc2ccc(O)c(O)c2)C(=O)O)ccc(O)c1O [Salvianolic acid D, salvianolic acid D] | poor
10 | O=C(/C=C/c1ccc(O)c(O)c1)O[C@H](Cc1ccc(O)c(O)c1)C(=O)O [Rosmarinic acid, rosmarinic acid] | poor
11 | O=C(O)c1ccc(O)c(O)c1 [Protocatechuic acid, protocatechuic acid] | fairly good

target: T3, human OCT2 (Homo sapiens, UniProt O15244); assay: Cellular transport assay, HEK-293 cells expressing human OCT2; conditions: Danshen phenolic acid at 100 μM final concentration, 10 min; human OCT2-transfected vs mock cells
T3 sequence (O15244 1-555): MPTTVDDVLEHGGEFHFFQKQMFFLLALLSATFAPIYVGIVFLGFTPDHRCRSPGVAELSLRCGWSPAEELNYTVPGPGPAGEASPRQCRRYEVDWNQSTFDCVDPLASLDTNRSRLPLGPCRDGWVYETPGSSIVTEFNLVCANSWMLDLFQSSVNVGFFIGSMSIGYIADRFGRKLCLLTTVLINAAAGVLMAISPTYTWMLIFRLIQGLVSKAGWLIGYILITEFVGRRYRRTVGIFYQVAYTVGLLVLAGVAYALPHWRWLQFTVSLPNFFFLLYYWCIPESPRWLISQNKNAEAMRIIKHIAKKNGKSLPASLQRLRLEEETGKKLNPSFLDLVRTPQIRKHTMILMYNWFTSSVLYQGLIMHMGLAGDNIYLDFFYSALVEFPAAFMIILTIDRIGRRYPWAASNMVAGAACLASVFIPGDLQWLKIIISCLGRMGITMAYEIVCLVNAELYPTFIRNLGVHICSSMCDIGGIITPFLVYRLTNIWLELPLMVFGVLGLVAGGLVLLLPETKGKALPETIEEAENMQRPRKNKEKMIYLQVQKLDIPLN

Row | Molecule | TransportTC/TransportMC ratio (net transport ratio)
12 | salvianolic acid B | 0.75 ± 0.23
13 | O=C(O)Cc1c(/C=C/C(=O)O[C@H](Cc2ccc(O)c(O)c2)C(=O)O)ccc(O)c1O [Salvianolic acid D, salvianolic acid D] | 0.85 ± 0.26
14 | O=C(/C=C/c1ccc(O)c2c1[C@H](C(=O)O)[C@@H](c1ccc(O)c(O)c1)O2)O[C@H](Cc1ccc(O)c(O)c1)C(=O)O [Lithospermic acid, lithospermic acid] | 0.89 ± 0.31
15 | O=C(O)c1ccc(O)c(O)c1 [Protocatechuic acid, protocatechuic acid] | 0.75 ± 0.35
